ChEMBL document CHEMBL3727364, “Resorcinol n-aryl amide compounds, for use as pyruvate dehydrogenase kinase inhibitors” (2015)

How the values were obtained:
[1] = target: Pyruvate dehydrogenase kinase (Homo sapiens, UniProt Q15119+Q15120+Q16654+Q15118); test: Inhibition of pyruvate dehydrogenase kinase in human PC3 cells incubated for 90 mins by phospho(Ser293)E1alpha MSP ELISA method; format: cell-based; conditions: pc-3
[2] = target: [Pyruvate dehydrogenase (acetyl-transferring)] kinase isozyme 1, mitochondrial (Homo sapiens, UniProt Q15118); test: Binding affinity to pyruvate dehydrogenase kinase 1 (unknown origin) incubated for 90 mins by VER-00160364 probe based fluorescence polarization assay
Sequence of [Pyruvate dehydrogenase (acetyl-transferring)] kinase isozyme 1, mitochondrial (Q15118 whole entry): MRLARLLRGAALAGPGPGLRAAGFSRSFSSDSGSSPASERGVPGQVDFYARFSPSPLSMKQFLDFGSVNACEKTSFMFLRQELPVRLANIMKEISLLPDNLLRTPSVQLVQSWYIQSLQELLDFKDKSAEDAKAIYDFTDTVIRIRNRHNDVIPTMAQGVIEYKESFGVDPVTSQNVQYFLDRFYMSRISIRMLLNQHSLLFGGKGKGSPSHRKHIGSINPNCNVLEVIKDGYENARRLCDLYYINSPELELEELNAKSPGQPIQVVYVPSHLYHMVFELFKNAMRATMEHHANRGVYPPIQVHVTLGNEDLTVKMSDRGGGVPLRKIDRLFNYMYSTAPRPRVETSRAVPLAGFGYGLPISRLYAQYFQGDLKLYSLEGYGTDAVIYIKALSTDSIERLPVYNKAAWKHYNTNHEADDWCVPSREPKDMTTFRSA

SMILES: Cc1cc(S(=O)(=O)NCc2ccccc2)cnc1-c1ccc(N(Cc2cccnc2)C(=O)c2ccc(O)cc2O)cc1
- IC50 [1]: 1000 nM
- IC50 [2]: 10 nM

SMILES: COc1ccc(CN(C)C(=O)c2ccc(N(Cc3cc(C)no3)C(=O)c3cc(Cl)c(O)cc3O)cc2)cc1
- IC50 [1]: 1000 nM
- IC50 [2]: 100 nM

SMILES: Cc1cc(S(=O)(=O)NCc2cccnc2)cnc1-c1ccc(N(Cc2ccccc2)C(=O)c2cc(Cl)c(O)cc2O)cc1
- IC50 [1]: 1000 nM
- IC50 [2]: 100 nM

SMILES: Cc1cc(S(=O)(=O)N2CC(F)(F)C2)cnc1-c1ccc(N(Cc2ccccc2)C(=O)c2ccc(O)cc2O)cc1
- IC50 [1]: 10000 nM
- IC50 [2]: 100 nM

SMILES: COc1cnc(Cl)nc1-c1ccc(N(Cc2ccccc2)C(=O)c2cc(Cl)c(O)cc2O)cc1
- IC50 [1]: 100 nM
- IC50 [2]: 100 nM

SMILES: CN(Cc1ccc2ccccc2c1)C(=O)c1ccc(N(Cc2cccnc2)C(=O)c2ccc(O)cc2O)cc1
- IC50 [1]: 1000 nM
- IC50 [2]: 10 nM
